What was measured:
RBL-2H3 cells = test: RBL-2H3 cell degranulation inhibition test; type: cell-based, rat; details: untreated control = 100
Description: Whether or not an anti-I-type allergy agent has a degranulation inhibitory action can be confirmed through the following method. For example, cells, such as rat basophilic leukemia cells (RBL-2H3 cells), which extracellularly release […] containing histamine through cross-linking of IgE bound on a cell surface due to an antigen are used. The extent to which the degranulation of a specimen to which an anti-I-type allergy agent is added is inhibited when these cells are stimulated by the antigen is calculated compared to a specimen to which no anti-I-type allergy agent is added. RBL-2H3 cells, which were rat basophilic leukemia cells, (National Institutes of Biomedical Innovation, Health and Nutrition) were seeded in a 96-well plate and were then cultured overnight. […] Then, the cells were washed with the buffer solutions. Furthermore, the prepared 1,000, 500, and 250 μg/mL test solutions were added thereto so that the final concentrations became 500 μg/mL (Example 1), 250 μg/mL (Example 2), and 125 μg/mL (Example 3), respectively. Thereafter, the mixtures were allowed to react at 37° C. for 10 minutes. Then, DNP-labeled human serum albumin was added thereto, and the mixtures were further allowed to react at 37° C. for 3 hours. […] For each sample of Examples 1 to 3, Comparative Example 1, a positive control, an antigen-unstimulated control, and sample blanks, the absorbance of p-nitrophenol generated by reaction between a substrate and β-hexosaminidase present in granules was measured (at a measurement wavelength of 405 nm and a control wavelength of 650 nm) using a microplate reader (SpectraMax M2e, Molecular Devices, LLC.) The emission rate was obtained using the following equation from the absorbance of each sample with respect to the absorbance of Comparative Example 1, and each degranulation rate was calculated from the emission rate. In the equation, “absorbance on cell supernatant” and “absorbance on cell solution side” are values obtained by subtracting the sample blanks. Emission rate (%)=absorbance on cell supernatant side/(absorbance on cell supernatant side+absorbance on cell solution side) Degranulation rate (%)={average value of (emission rate of test solution−emission rate of antigen-unstimulated control)/(emission rate of untreated control−emission rate of antigen-unstimulated control)}×100

[1] = test system: short-term memory impairment caused by accumulation of amyloid β proteins; test: Y-shaped maze test in mice injected with amyloid β; type: in vivo; details: 100 mg/kg oral once a day
Description: p-Coumaric acid (trans-p-coumaric acid, Tokyo Chemical Industry Co., Ltd.) was stored at room temperature (control temperature: 18.0° C. to 28.0° C.) until it was used in a test. Injection water (Otsuka distilled water, Otsuka Pharmaceutical Factory, Inc.) was prepared as a medium in which p-coumaric acid was to be dissolved. The required amount of p-coumaric acid was weighed out and dissolved in the injection water. Then, the dissolved p-coumaric acid was diluted to a predetermined concentration to obtain a test solution.
Amyloid β (Amyloid-β Protein (25-35, Polypeptide Laboratories) to be used in an amyloid β solution was stored in a freezer (control temperature: −30° C. to −20° C.) until it was to be used in a test. Amyloid β was dissolved in injection water to 2 mM to prepare an amyloid β solution.
Male Slc:ddY mice (SPF, Japan SLC, Inc.) were used as test animals 5-week-old mice were obtained as the mice. Mice are animal species generally used in behavioral pharmacology tests, and maintenance of their strains is clear. The body weight range of the mice 1 day after the acquisition was 23.8 to 30.0 g.
Grouping was performed through a random sampling method on the start day of administration of a test solution so that the average body weight of each group was approximately uniform. As a group configuration, there were three groups: a pseudo-operation group, a medium control group, and a p-coumaric acid administration group. In the p-coumaric acid administration group, the amount of solution administered was calculated as 10 mL/kg based on the body weight on the administration day so that the amount of p-coumaric acid administered was 100 mg/kg per mouse. A 0.5% (w/v) methyl cellulose solution was administered to the pseudo-operation group and the medium control group at 10 mL/kg.
The start day of administration of a test solution was regarded as day 1 of administration, the test solution was administered once a day, and an amyloid β solution was injected into the mice on day 8 of the administration. Thereafter, a Y-shaped maze test was carried out on day 14 of the administration. Each procedure will be described below.
The administration route was oral administration. Regarding the administration method, a test solution was orally administered according to a usual method used in test facilities using a polypropylene disposable injection cylinder (TERUMO CORPORATION) equipped with a disposable oral sonde for mice (Fuchigami Kikai). At the time of the administration operation, the test solution was mixed by inversion every time it was administered to a mouse, and was then sucked into the injection cylinder. On the day of injection of an amyloid β solution, the test solution was administered after the injection of the amyloid β solution. […]

[2] = day 14, 8 minutes in maze, mean ± standard error

For `COC[C@H]1OC(=O)c2coc3c2[C@@]1(C)C1=C(C3=O)[C@@H]2CCC(=O)[C@@]2(C)C[C@H]1OC(C)=O` [Wortmannin, reference compound], the degranulation rate (RBL-2H3 cells; Wortmannin final concentration 25 nmol/L) was 39±6.4%.

With `O=C(O)/C=C/c1ccc(O)cc1` [p-Coumaric acid] the “Spontaneous alternation behavior number” value [1, 2] was 21.3 ± 1.5, the “Spontaneous behavior alternation rate (%)” value [1, 2] was 66.0 ± 1.4% and the Total entry number [1, 2] was 34.2 ± 2.1. For the same molecule, the “spontaneous alternation behavior rate compared with medium control group” value ([1]; day 14, significant difference p<0.01) was “higher than that of the medium control group”, the degranulation rate (RBL-2H3 cells; p-coumaric acid final concentration 125 μg/mL) was 78±8.1% and the degranulation rate (RBL-2H3 cells; p-coumaric acid final concentration 250 μg/mL) was 46±8.0%. For the same molecule, the degranulation rate (RBL-2H3 cells; p-coumaric acid final concentration 500 μg/mL, anti-DNP-IgE sensitised, DNP-labeled human serum albumin stimulated) was 12±3.0%.
